# Measurements taken from patent US20250326725A1, “PI4-Kinase Inhibitors and Methods of Using the Same” (The Board of Trustees of the Leland Stanford Junior …, priority 2019, published 2025).
# How the values were obtained:
# [1] = Cell toxicity (CC50) in BK virus assay
# PI4KIIIbeta = target: T1, PI4KIIIbeta (Bos taurus, UniProt O02810); test: PI-kinase assay, PI4KIIIbeta (Table 4); format: biochemical, bovine
# T1 construct: made in house; host or cells: COS-7 cells, transient transfection, anti-HA immunoprecipitate on protein G Sepharose beads
# T1 sequence (O02810 whole entry): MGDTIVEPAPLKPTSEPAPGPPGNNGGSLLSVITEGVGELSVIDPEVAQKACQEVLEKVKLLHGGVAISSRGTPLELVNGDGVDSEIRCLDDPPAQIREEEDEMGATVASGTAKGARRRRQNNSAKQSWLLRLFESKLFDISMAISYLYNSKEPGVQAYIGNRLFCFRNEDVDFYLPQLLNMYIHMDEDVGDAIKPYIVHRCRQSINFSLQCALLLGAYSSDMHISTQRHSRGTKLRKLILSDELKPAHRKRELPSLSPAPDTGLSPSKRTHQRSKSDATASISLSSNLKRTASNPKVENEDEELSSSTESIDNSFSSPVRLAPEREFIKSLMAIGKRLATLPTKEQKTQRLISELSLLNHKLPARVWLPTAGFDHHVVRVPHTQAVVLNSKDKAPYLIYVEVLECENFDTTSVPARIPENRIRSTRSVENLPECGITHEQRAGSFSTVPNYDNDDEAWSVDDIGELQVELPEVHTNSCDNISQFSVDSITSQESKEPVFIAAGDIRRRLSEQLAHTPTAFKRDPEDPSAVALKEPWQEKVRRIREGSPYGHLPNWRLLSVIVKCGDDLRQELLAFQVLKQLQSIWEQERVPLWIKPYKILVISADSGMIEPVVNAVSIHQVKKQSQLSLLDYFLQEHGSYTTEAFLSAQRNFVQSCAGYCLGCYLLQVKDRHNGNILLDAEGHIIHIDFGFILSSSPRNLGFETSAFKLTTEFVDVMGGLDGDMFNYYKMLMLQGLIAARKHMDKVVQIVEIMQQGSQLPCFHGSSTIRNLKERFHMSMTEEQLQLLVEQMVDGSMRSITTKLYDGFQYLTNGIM
# Description: (§1) PI-kinase assay: Compounds are tested in C.1.1. PT kinase assays as described by Shokat et al., “A membrane capture assay for lipid kinase activity.” Nat. Protoc. 2007; 2(10):2459-66.
# (§2) General methods of materials: In the assays described here, p110α-p85 complex and p110γ were acquired from Millipore. Assays were performed with La-phosphatidylinositol (Avanti) as described in Knight et al. Nat Protoc. 2007; 2 (10):2459-66. Inhibitor series were prepared 10% DMSO as 5× stocks for the assay. Assays of HsVps34 were performed as described in Knight et al, except that the final assay buffer composition used was changed to 20 mM HEPES 7.5, 100 mM NaCl, 3 mM MgCl, 1 mg/mL PI and 44 nM hvps34 was used in the assay. […] COS-7 cells were cultured in 10 cm dishes and transfected at 70% confluence with 10 μg of plasmid DNA (HA-tagged bovine PI4KIIIβ. HA-tagged human PI4KIIIα) using Lipofectamine 2000 and 5 ml Opti-MEM following the manufacturer's instructions. After 5 hours the transfection medium was replaced with 10 ml complete DMEM. 36 hrs post transfection, cells were washed once with 5 ml PBS (pH 7.4) and lysed in 1 ml of lysis buffer (1) on ice. Lysates were collected by scraping and after 15 min they were centrifuged at 13.000 rpm for 10 min. To the lysates was added 200 gi of protein G Sepharose 4 fast flow beads that were prewashed with PBS and lysis buffer and 2 sg of anti-HA antibody. The tubes were then incubated overnight at 4 degrees C. in a tube rotator. The Sepharose beads in the lysate were washed twice with 150 mM NaCl in RIPA buffer, twice with RIPA buffer and once with kinase buffer (50 mM Tris/HCl, pH 7.5, 20 mM MgCl2, 1 mM EFTA, 1 mM PtdIns, 0.4% Triton X-100, 0.5 mg/mL BSA) and finally the beads were resuspended in 200 μL kinase buffer. Kinase reactions were run in a mixture of 45 μL of PI buffer (1 mM P1 in kinase buffer), 10 μL of immunoprecipitated beads, 2 µL of inhibitors (dissolved and diluted in DMSO) or DMSO and 5 μL of [γ-^32P]-ATP (1 mM and 2 μCi/tube). The immunoprecipitates in PI buffer were pre-incubated with the drugs for 20 min prior the initiation of kinase reaction by adding ATP and the reactions were carried out for 30 min in 15 ml polyproplyene tubes. Reactions were terminated by addition of 3 ml of CHCl3:CH3OH:HCl (200:100:0.75) followed by 0.6 ml of 0.61N HCl to induce phase separation. The mixtures were vortexed, centrifuged at 2000 rpm for 2 min and the upper phase was discarded. To the lower phase was added 1.5 ml of CHCl3:CH3OH:0.6N HCl (3:48:47) and the mixture vortexed and centrifuged at 2000 rpm for 2 ruin. The lower phase was then transferred to counting vials and evaporated. Samples were counted in a scintillation beta counter after adding 5 ml of Instafluor (Perkin-Elmer).
# (§3) Selected compounds of Tables 1-3 were prepared and tested for inhibition activity in a variety of kinase assays.
# lung cancer cell lines [2] = test: Cell proliferation in monolayer culture (WST-1); format: cell-based, human; conditions: panel of lung cancer cell lines
# Description: (§4) Human lung cancer cells (A549, H1299, H460, H23, H2122, and H3122) were cultured in RPMI 1640 containing 10% FBS. Cells were maintained at 37° C. in an incubator with a humidified atmosphere containing 5% CO2.
# (§5) To assess the anti-cancer activity of exemplary PI4K antagonists, a panel of lung cancer cell lines annotated for the presence or absence of PI4K amplifications were treated with PI4K inhibitors (IN-9, TN-10, or compound B) that have greater than 1000-fold selectivity […] PI4KIIIβ over class I and class III PI3K family members. […] IC50 values were even lower with the presence of PI4K amplifications.
# (§6) PI4KIIIβ is a target in human cancers, including lung adenocarcinoma. (FIG. 1A). PI4P concentrations in H2122 cells (dots) treated in triplicate (dots) with Compound B or vehicle dimethyl sulfoxide (DMS). (FIG. 1B) Relative densities of PI4-kinase-amplified (red) and -diploid (black) human lung adenocarcinoma cell lines determined by WST-1 assays after 5 days of Compound B treatment. Results expressed relative to the lowest dose, which was set at 100%. (FIG. 1B, right panel) Half maximal inhibitory (IC50) concentrations of compound B determined from FIG. 1B, left panel. (FIG. 1C) Migrated and invaded 1-23 human lung adenocarcinoma cells in Transwell chambers were photographed (images) and counted (bar graphs) after treatment with compound B. Results expressed relative to DMSO-treated cells, which were set at 1.0. (FIG. 1C, right panel). Colonies formed by H2122 human lung cancer cells in soft agarose (FIG. 1D) and on plastic (FIG. 1E) were photographed (images) and counted (bar graphs) after 7 days of treatment with the indicated doses of compound B or vehicle DMSO (0 M). Results expressed relative to DMSO control, which were set at 1.0. PI4-kinase inhibition leads to selective cytotoxicity for cancer cells (FIG. 1F).
# lung cancer cell lines [3] = test: PI4P levels in lung cancer cell lines; format: cell-based, human; conditions: panel of lung cancer cell lines
# Description: as §4, §5, §6
# [4] = system: Human HPV (Papillomaviridae); test: Human HPV antiviral assay (EC50); format: cell-based, human papilloma virus; conditions: Human papillomavirus, read-out: Human HPV (Papillomaviridae) EC50
# [5] = system: BK virus (Polyomaviridae); test: BK virus antiviral assay (EC50); format: cell-based; conditions: Betapolyomavirus hominis
# [6] = Cell toxicity (CC50) in HPV assay
# lung cancer cell lines [7] = test: Colony formation in soft agar and on plastic; format: cell-based, human; conditions: panel of lung cancer cell lines
# Description: as §4, §5, §6
# EV-71 virus = test: Survival of AG129 mice challenged with EV-71; format: in vivo; conditions: EV-71 10^6.5 CCID50/mouse i.p., treated b.i.d. for five days per os starting four hours post-infection
# Description: FIG. 4 illustrates the survival of four-week-old AG129 mice challenged with EV-71 virus and treated with exemplary Compound B. Groups of eight AG129 nice were challenged with EV-71 at 10^6.5 CCID50/mouse via the i.p. route. Mice were treated b.i.d. for five days per os with doses of Compound B as shown, starting four hours post-infection. Placebo-treated mice received a vehicle control on the same schedule. Mice treated with IVIg, as a positive control, received a single administration of 100 mg/kg via the i.p. route four hours post-infection. […] (*P<0.05, **P<0.01).
# [8] = system: H2122 human orthotopic lung tumors; test: H2122 human orthotopic lung tumors in nu/nu mice; format: in vivo; conditions: 20 or 40 mg/kg plus 20 mg/kg ritonavir, subcutaneously twice daily for three weeks
# Description: Mice received standard care and were euthanized according to the standards set forth by the Institutional Animal Care and Use Committee. To generate orthotopic lung tumors using human lung adenocarcinoma cell lines, nu/nu mice (n=10 mice per cohort) were subjected to intrathoracic injection with 10^6 human tumor cells, necropsied after a week or more of treatment, and primary tumor size and the number of metastases on the contralateral lung surface measured. […] Drugs were administered subcutaneously twice daily for three weeks. On the last day of treatment, mice were subjected to micro-computed tomography to measure primary tumor size. The following day, mice were necropsied to measure primary tumor size, count metastases to the contralateral lung, and obtain lung tissues for analysis. […] Drugs were administered intraperitoneally twice daily for 8 days. On the last day of treatment, mice were subjected to micro-computed tomography to measure primary tumor size. The following day, mice were necropsied to measure primary tumor size, count metastases to the contralateral lung, and obtain lung tissues.
# lung cancer cell lines [9] = test: Migration and invasion in Boyden chambers; format: cell-based, human; conditions: panel of lung cancer cell lines
# Description: as §4, §5, §6
# PI4KIIIalpha = target: T2, PI4KIIIalpha (Homo sapiens, UniProt P42356); test: PI-kinase assay, PI4KIIIalpha (Table 4); format: biochemical
# T2 construct: made in house; host or cells: COS-7 cells, transient transfection, anti-HA immunoprecipitate on protein G Sepharose beads
# T2 sequence (P42356 whole entry): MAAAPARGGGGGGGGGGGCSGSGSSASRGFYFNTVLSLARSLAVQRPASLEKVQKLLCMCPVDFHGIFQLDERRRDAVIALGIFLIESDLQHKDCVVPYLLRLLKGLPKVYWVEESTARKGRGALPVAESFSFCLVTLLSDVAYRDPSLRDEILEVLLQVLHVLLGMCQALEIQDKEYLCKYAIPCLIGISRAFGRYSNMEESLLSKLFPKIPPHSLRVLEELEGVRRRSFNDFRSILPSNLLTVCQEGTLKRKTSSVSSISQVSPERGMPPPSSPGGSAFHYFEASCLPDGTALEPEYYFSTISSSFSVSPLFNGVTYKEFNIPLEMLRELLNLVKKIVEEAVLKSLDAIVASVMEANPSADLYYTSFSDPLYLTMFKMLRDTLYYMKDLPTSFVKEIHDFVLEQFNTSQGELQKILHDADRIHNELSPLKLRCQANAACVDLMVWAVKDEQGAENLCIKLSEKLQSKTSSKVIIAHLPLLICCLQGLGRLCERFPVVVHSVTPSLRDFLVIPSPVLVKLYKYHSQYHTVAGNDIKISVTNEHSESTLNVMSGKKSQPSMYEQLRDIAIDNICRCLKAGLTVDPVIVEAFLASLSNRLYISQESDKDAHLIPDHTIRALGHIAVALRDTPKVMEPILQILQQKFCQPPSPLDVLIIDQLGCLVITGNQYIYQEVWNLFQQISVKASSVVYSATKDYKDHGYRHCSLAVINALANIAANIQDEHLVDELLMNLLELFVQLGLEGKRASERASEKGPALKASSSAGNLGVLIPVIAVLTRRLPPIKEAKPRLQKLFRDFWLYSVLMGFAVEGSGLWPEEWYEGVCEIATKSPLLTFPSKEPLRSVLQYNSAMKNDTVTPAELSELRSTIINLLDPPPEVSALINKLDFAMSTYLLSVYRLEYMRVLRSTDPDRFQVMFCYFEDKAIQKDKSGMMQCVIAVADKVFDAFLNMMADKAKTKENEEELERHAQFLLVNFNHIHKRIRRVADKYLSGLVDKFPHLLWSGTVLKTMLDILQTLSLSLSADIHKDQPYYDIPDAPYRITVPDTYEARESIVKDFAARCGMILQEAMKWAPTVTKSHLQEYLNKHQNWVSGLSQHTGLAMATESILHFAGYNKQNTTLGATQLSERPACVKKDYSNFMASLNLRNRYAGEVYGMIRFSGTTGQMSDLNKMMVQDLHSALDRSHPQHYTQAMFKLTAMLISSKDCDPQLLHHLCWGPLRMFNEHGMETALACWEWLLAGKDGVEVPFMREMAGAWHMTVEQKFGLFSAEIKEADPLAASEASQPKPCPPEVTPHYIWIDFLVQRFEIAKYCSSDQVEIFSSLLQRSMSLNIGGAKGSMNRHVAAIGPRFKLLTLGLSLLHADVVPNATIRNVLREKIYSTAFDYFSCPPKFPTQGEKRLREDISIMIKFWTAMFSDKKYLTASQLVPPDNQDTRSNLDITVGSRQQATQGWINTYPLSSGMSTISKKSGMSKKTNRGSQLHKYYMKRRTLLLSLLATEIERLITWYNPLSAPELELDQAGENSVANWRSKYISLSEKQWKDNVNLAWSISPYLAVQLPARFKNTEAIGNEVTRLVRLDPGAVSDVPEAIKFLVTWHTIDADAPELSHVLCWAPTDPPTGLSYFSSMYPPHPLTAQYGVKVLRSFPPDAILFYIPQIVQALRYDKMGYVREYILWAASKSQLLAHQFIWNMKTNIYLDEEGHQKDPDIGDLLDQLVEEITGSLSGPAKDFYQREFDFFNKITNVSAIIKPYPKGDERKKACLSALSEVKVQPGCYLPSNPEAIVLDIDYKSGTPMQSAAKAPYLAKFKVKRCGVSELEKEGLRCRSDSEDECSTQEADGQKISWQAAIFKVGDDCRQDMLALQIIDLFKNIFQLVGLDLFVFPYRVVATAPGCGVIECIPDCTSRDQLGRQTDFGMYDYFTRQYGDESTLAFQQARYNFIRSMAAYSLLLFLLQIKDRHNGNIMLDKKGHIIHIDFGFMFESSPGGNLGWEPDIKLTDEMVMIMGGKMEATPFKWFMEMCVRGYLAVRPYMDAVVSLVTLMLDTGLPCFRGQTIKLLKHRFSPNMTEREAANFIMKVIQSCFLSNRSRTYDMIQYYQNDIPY
# Description: as §1, §2, §3
# PI3Kβ = PI3Kβ (Homo sapiens, UniProt P42338); conditions: at concentrations up to 20 μM; cited from earlier work
# PI4K2β = PI4K2β (Homo sapiens, UniProt Q8TCG2); conditions: at concentrations up to 20 μM; cited from earlier work
# PI3Kα = PI3Kα (Homo sapiens, UniProt P42336); conditions: cited from earlier work
# PI3KC2γ = PI3KC2γ (Homo sapiens, UniProt O75747); conditions: cited from earlier work
# Sequence of PI3KC2γ (O75747 whole entry, species assumed): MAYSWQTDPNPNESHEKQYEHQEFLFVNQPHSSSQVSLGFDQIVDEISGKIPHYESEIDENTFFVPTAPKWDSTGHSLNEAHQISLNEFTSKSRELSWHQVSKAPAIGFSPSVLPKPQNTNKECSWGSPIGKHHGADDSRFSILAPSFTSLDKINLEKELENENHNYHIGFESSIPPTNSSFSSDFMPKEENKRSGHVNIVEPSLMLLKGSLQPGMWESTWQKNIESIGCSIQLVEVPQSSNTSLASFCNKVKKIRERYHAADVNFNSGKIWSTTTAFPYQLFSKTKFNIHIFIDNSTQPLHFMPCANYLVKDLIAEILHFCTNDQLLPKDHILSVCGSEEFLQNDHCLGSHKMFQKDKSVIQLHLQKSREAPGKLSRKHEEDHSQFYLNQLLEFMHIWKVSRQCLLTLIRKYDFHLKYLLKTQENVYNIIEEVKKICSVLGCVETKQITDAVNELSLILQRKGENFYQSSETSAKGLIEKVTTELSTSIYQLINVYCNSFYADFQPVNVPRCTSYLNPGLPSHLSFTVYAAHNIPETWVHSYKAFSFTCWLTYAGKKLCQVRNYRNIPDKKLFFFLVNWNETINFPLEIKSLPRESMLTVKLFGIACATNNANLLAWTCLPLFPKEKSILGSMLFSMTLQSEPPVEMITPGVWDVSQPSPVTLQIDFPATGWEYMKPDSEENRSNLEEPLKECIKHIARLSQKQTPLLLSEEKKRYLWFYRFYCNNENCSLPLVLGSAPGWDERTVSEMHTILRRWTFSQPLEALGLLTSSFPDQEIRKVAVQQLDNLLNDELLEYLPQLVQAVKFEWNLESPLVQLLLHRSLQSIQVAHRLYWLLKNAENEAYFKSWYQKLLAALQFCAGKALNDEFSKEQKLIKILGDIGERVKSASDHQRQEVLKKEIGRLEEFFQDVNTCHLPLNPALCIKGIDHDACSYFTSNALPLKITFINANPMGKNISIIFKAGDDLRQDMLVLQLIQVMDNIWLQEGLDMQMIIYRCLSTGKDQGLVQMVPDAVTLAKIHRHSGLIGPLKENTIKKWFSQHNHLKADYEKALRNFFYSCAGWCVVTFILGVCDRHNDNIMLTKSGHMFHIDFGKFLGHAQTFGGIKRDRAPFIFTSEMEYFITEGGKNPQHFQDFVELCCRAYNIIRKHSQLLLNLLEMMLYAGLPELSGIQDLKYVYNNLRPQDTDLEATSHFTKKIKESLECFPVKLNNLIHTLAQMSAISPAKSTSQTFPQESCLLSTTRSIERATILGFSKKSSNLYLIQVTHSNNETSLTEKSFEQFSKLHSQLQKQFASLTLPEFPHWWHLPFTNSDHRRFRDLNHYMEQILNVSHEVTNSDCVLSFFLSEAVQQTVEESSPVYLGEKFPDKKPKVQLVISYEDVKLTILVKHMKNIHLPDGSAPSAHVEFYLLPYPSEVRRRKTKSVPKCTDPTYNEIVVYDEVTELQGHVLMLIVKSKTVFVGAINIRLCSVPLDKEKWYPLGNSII
# PI4K2α = PI4K2α (Homo sapiens, UniProt Q9BTU6); conditions: at concentrations up to 20 μM; cited from earlier work
# Sequence of PI4K2α (Q9BTU6 whole entry): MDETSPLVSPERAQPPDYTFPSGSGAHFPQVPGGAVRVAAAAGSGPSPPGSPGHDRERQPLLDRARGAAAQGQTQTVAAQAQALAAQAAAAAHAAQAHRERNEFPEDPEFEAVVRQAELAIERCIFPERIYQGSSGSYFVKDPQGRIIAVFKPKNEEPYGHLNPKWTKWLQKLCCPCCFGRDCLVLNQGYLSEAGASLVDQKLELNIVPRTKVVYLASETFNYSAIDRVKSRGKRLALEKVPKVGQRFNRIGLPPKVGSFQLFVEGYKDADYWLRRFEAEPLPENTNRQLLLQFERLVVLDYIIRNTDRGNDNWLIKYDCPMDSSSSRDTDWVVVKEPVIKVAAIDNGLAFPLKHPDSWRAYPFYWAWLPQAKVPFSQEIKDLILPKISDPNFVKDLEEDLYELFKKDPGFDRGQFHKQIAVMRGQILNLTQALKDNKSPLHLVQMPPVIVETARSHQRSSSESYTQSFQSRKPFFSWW
SMILES,CC50 [1],IC50 (PI4KIIIbeta),cell proliferation in monolayer culture (lung cancer cell lines [2]),PI4P levels (lung cancer cell lines [3]),EC50 [4],EC50 [5],CC50 [6],colony formation in soft agar and on plastic (lung cancer cell lines [7]),survival (EV-71 virus),metastases [8],sizes of the primary tumors vs vehicle alone [8],migration and invasion in Boyden chambers (lung cancer cell lines [9]),IC50 (PI4KIIIalpha),inhibition of PI3Kβ (PI3Kβ),inhibition of PI4K2β (PI4K2β),IC50 (PI3Kα),IC50 (PI3KC2γ),inhibition of PI4K2α (PI4K2α)
COc1ccc(-c2sc(NC(C)C3CCOCC3)nc2C)cc1S(=O)(=O)Nc1ccccc1Cl (stereo not shown) [Compound B],> 100000 nM,< 100 nM,reduced cell proliferation in monolayer culture,decreased PI4P levels in a dose-dependent fashion,2100 nM,19 nM,131000 nM,reduced,A dose response was observed in survival,No metastases were detectable,smaller,reduced,> 10000 nM,,,,,
COc1ccc(-c2sc(NC(=O)C(C)(C)C)nc2C)cc1S(=O)(=O)Nc1ccc(O)cc1 [PI4KIIIbeta-IN-10],,,reduced cell proliferation in monolayer culture,decreased PI4P levels in a dose-dependent fashion,,,,reduced,,,,reduced,,< 20%,< 20%,~10000 nM,~1000 nM,< 20%
